# Experimental data from ChEMBL document CHEMBL4888484, “Replenishing the malaria drug discovery pipeline: Screening and hit evaluation of the MMV Hit Generation Library 1 (HGL1) against asexual blood stage Plasmodium falciparum ,using a nano luciferase reporter read-out” (2022).
# Columns and labels:
# [1] = Hit confirmation in dose-response curve in HepG2 cytotoxicity assay, at 72h; assay type: toxicity, cell-based; set-up: timepoint 72 hour; details: human, HepG2 cells
# Plasmodium falciparum [2] = test: Hit confirmation in dose-response curve in Dd2 pLDH assay, at 72h; assay type: functional, organism-based; set-up: timepoint 72 hour; details: Dd2, Erythrocyte
# Plasmodium falciparum [3] = test: Hit confirmation in dose-response curve in NF54 nanoGlo assay, at 12h; assay type: functional, organism-based, Erythrocyte; set-up: timepoint 12 hour; details: Plasmodium falciparum, NF54, Erythrocyte, 12 h
# Plasmodium falciparum [4] = test: Hit confirmation in dose-response curve in NF54 pLDH assay, at 72h; assay type: functional, organism-based; set-up: timepoint 72 hour; details: NF54, Erythrocyte
# Plasmodium falciparum [5] = test: Hit confirmation in dose-response curve in NF54 nanoGlo assay, at 72h; assay type: functional, organism-based, Erythrocyte; set-up: timepoint 72 hour; details: Plasmodium falciparum, NF54, Erythrocyte, 72 h
Structure (SMILES),IC50 at 72 h [1] [µM],IC50 (Plasmodium falciparum [2]) [µM],IC50 (Plasmodium falciparum [3]) [µM],IC50 (Plasmodium falciparum [4]) [µM],IC50 (Plasmodium falciparum [5]) [µM]
CCOc1ccc(Nc2c3ccccc3nc3ccccc23)cc1,> 10,1.86,5.75,3.47,1.55
CCOC(=O)CCn1cc(F)c(=O)[nH]c1=O,> 10,> 10,> 10,0.0708,0.0269
Cc1ccc(-c2c[n+](-c3ccc(OC(F)F)cc3)c3n2CCCCC3)cc1,> 10,1.2,> 10,1.66,0.891
CCc1ccc(/C=C/c2c[nH]c3ccccc23)[n+](CC)c1,> 10,0.372,> 10,0.513,0.263
c1ccc(CCNc2nc(-c3ccccn3)cs2)cc1,> 10,3.63,> 10,3.24,2.45
Cc1cc(C)c2nc(C)cc(Nc3ccc(O)cc3)c2c1,> 10,1.26,7.41,1.66,1.23
c1ccc(C2=NN(c3ccc(-c4cc(-c5ccccc5)[n+](-c5ccccc5)c(-c5ccccc5)c4)cc3)[C@H](c3ccccc3)C2)cc1,4.07,0.955,2.19,1.32,0.631
O=C(N[C@@H]1CN(Cc2ccccn2)CCC[C@H]1O)c1ccc(OCc2ccccc2)cc1,> 10,2.29,> 10,4.07,2.45
C[C@H]1[C@@H]2[C@@H](O)C([C@H](C)C(=O)NC3CCCCC3)CC[C@@]2(C)CC[C@@H]1NC(=O)CC(C)(C)C (stereo not given in full),> 10,2.88,> 10,3.47,> 10
COc1ccc2c(/C=C/c3cc[n+](C)cc3)cn(Cc3ccccc3)c2c1,> 10,1.26,> 10,1.58,1.17
CC(C)C(=O)Nc1ccc(-c2cc(-c3ccc(NC(=O)C(C)C)cc3)nc(-c3ccncc3)n2)cc1,> 10,> 10,> 10,8.71,4.68
O=C(c1cccc(C(=O)N2CCN(C(c3ccccc3)c3ccccc3)CC2)c1)N1CCN(C(c2ccccc2)c2ccccc2)CC1,> 10,> 10,> 10,> 10,> 10
CC(=O)c1cccc(NC(=O)[C@@]23CCC(=O)N2c2ccccc2C(=O)N3C)c1,> 10,2.82,3.09,5.89,1.91
Cc1n(CC(=O)c2ccccc2)c2ccccc2[n+]1CC(=O)c1ccccc1,> 10,1.62,> 10,1.55,1.05
c1cc(-c2nc3cc4ccccc4cc3[nH]2)nc(-c2nc3cc4ccccc4cc3[nH]2)c1,8.32,1.95,0.977,1.15,0.513
C[C@H]1CCC[C@@H](NCCc2ccccc2)CCC/C=C/c2cc(O)cc(O)c2C(=O)O1,> 10,2.29,8.51,2.95,0.759
COc1ccc(C2=CN(CC(=O)c3ccc(Cl)cc3)C3=CCCCCN23)cc1,> 10,3.16,> 10,2.95,2.95
CCN(CC)CCn1c2ccccc2n2cc(-c3ccc(Br)cc3)nc12,> 10,6.46,7.08,9.77,4.47
Cc1ccc(S(=O)(=O)Nc2c(S(=O)(=O)c3ccccc3)c3nc4ccccc4nc3n2CCc2ccccc2)cc1,> 10,5.13,3.63,6.76,2.14
CC1([C@@](O)(C#CC[N+]2(C)CCCCC2)c2ccccc2)CCCC1,> 10,1.26,> 10,1.41,2.19
Cc1ccc(S(=O)(=O)Nc2c(S(=O)(=O)c3ccc(C)cc3)c3nc4ccccc4nc3n2C[C@H]2CCCO2)cc1,> 10,> 10,1.35,> 10,2.57
CCCCCn1c(NCc2cc(Cl)ccc2O)nc2ccccc21,> 10,7.41,6.76,8.71,3.63
COc1ccc(CC(=N)Nc2cc3cc(OC)c(OC)cc3c(Cc3ccc(OC)c(OC)c3)n2)cc1OC,> 10,2,5.01,3.72,2.24
CCCOc1ccc(Nc2cc(C)nc3ccc(Cl)cc23)cc1,> 10,3.24,> 10,7.08,2.88

Structure (SMILES),IC50 at 72 h [1] [µM],IC50 (Plasmodium falciparum [2]) [µM],IC50 (Plasmodium falciparum [3]) [µM],IC50 (Plasmodium falciparum [4]) [µM],IC50 (Plasmodium falciparum [5]) [µM]
N#Cc1c(-c2ccccc2)cc(-c2ccccc2)nc1S(=O)(=O)Cc1ccccc1,> 10,3.55,6.61,4.07,3.09
CC[n+]1c(/C=C/N(C)c2ccccc2)oc2ccc(-c3ccccc3)cc21,> 10,0.417,5.37,0.891,0.562
CCC(CC)c1cc([C@H]2CN3CC[C@H]2C[C@@H]3CNS(=O)(=O)Cc2ccccc2)nc(-c2ccncc2)n1,> 10,3.89,3.89,4.37,2.04
CCOC(=O)c1cn(CC)c2cc(NC3CCCCC3)c(F)cc2c1=O,> 10,0.891,> 10,2.29,0.724
Cc1ccc[n+](Cc2ccc3ccccc3n2)c1,> 10,2.88,> 10,3.24,3.02
c1ccc(CC2=NCCc3ccccc32)cc1,> 10,1.41,> 10,3.02,1.29
Cc1ccc(S(=O)(=O)Nc2c(S(=O)(=O)c3ccc(C)cc3)c3nc4ccccc4nc3n2CCC(C)C)cc1,> 10,4.27,4.79,8.32,2.51
CCC[N+]1(CC#C[C@@](O)(c2ccccc2)C2(C)CCCC2)CCCCC1,> 10,3.24,> 3.16,3.47,3.24
Cc1ccc(N2C(=O)C[C@]3(CC3(c3ccccc3)c3ccccc3)C2=O)cc1,> 10,> 10,0.525,> 10,1.51
CN(C(=O)C(C)(C)Nc1ncc(C(F)(F)F)cc1Cl)c1ccc(Cl)cc1,> 10,> 10,1.55,> 10,3.55
O=C(NC1=NN2C(=NC(c3ccc(Cl)cc3)=C[C@H]2c2ccc(F)cc2)N1)c1ccc(Cl)cc1,> 10,3.16,4.17,2.95,2.29
C=C1C(C)C2C(Cc3c[nH]c4ccccc34)NC(=O)C23C(=O)CC(O)C(O)CC(C)C/C=C/C3C1O (stereo not given),> 10,3.39,> 10,3.16,1.82
COc1cccc(-c2nc(C)c(C(=O)Nc3nc(C(C)C)n[nH]3)s2)c1,> 10,> 10,0.575,> 10,1.48
CCN1C(=O)c2ccccc2N2C(=O)CC[C@@]12C(=O)Nc1cccc(OC)c1,> 10,1.23,1.7,1.35,1
Oc1cc(OCc2ccccc2F)ccc1-c1[nH]ncc1-c1ccccc1,> 10,3.09,3.89,4.07,2.19
COc1c2c(cc3c1[C@@H](C#CCOc1ccccc1)[N+](C)(C)CC3)OCO2,> 10,1.91,> 10,3.31,1.66
COCCCn1c(NS(=O)(=O)c2ccc3ccccc3c2)c(S(=O)(=O)c2ccc(C)cc2)c2nc3ccccc3nc21,> 10,8.51,1.55,6.76,2.34
CC(C)Nc1nc2nonc2n2cnnc12,> 10,3.55,4.47,4.37,1.95
Cc1ccc(S(=O)(=O)c2c(NS(=O)(=O)c3ccc(F)cc3)n(CCc3ccccc3)c3nc4ccccc4nc23)cc1,> 10,4.07,2.75,4.37,1.7
CCC[N+]1(CC#C[C@@](O)(c2ccccc2)C(C)(CC)CC)CCCCC1,> 10,4.27,> 10,4.37,3.39
COc1ccc(CNC(=O)c2ccc(N3C(=O)[C@@H]4Cc5c([nH]c6ccccc56)C(c5cccc(OC)c5)N4C3=O)cc2)cc1 (stereo not given in full),> 10,8.91,6.92,> 10,3.16
Cc1ccc(S(=O)(=O)c2c(NS(=O)(=O)c3ccccc3)n(CCc3ccccc3)c3nc4ccccc4nc23)cc1,> 10,3.02,1.91,3.8,1.45
CC(=O)Nc1ccc(-c2cn3c4ccccc4ccc3[n+]2C)cc1,> 10,1.41,> 10,0.263,0.49
O=C(COc1ccccc1)Nc1ccc2c(c1)C(O)=Nc1cccnc1O2,> 10,2.82,> 10,2.45,1.74
